In patent US20180209956A1, “HTS Assay for Identifying Small Molecule Inhibitors of RAD52 and Uses of Identified Small Molecule Inhibitors for Treatment and Prevention of BRCA-Deficient Malignancies” (University of Iowa Research Foundation, priority 2015, published 2018):

Tests used:
[1] = molecular target: T1, RAD52-dsDNA interaction (Homo sapiens, UniProt P43351); assay: FRET-based RAD52-dsDNA binding assay; details: 1 nM dsDNA, 10 nM RAD52
T1 construct: made in house
T1 sequence (P43351 1-418): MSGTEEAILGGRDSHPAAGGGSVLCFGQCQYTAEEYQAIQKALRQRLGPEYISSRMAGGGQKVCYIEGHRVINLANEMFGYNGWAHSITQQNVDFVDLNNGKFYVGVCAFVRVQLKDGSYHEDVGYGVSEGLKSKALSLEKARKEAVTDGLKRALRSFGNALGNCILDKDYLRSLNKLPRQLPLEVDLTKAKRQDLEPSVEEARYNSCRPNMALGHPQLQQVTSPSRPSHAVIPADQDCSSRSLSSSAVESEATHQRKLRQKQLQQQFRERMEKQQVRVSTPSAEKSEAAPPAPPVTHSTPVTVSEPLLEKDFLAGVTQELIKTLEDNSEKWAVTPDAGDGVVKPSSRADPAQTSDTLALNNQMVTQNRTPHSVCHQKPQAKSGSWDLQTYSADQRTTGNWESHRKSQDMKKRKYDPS
Source text: These assays utilize two complementary single stranded 28-nucleotide-long substrates, which contain either Cy3 (T-28) or Cy5 (P-28) incorporated into the middle of the respective DNA strand. When the substrates are annealed by RAD52, the Cy3 and Cy5 dyes are separated by 3 base pairs and yield a high FRET signal (FIG. 2 Supplement 2). […] The annealing reactions were initiated by mixing two half reactions and observing the change in FRET over time in the presence of varying concentrations of small molecules. An increasing FRET value over time indicates formation of the dsDNA duplex which brings the two dyes in close proximity (FIG. 2 Supplement 2). Fitting the annealing data to a double exponential allowed us to calculate and compare the final extent of annealing at varying concentrations of each compound compared to RAD52 alone. We plotted the final extent of annealing vs the concentration of the compound and calculated an IC50 of annealing inhibition.
where FRET0 is the initial FRET value of RAD52-ssDNA complex in the absence of the compound and FRETmin is the FRET value at complete inhibition. FRET values were calculated as an average of three or more independent annealing reactions plotted against the concentration of the compound. […]

[2] = molecular target: T2, RAD52 (Homo sapiens, UniProt P43351); assay: WaterLOGSY NMR analysis of compound binding to RAD52; design: made in house; details: 20 or 40 μM compound, 3.3 μM RAD52
T2 sequence (P43351 1-418): T1 sequence (P43351 1-418)
Experimental: In WaterLOGSY spectrum, if a compound binds to a protein, the compound will receive negative nuclear Overhauser effects (NOEs) due to the slow tumbling of the protein-compound complex, leading to a positive WaterLOGSY peak.
WaterLOGSY NMR analysis of the compound binding to RAD52 and RPA proteins: Compound binding to RAD52 and RPA proteins was analyzed using water-ligand observation with gradient spectroscopy (WaterLOGSY) NMR experiments (Dalvit et al., 2001, Dalvit et al., 2000). The WaterLOGSY spectra of compounds in the presence of RAD52 or RPA were acquired using a water NOE mixing time of 1 s and a T2 relaxation filter of 50 ms just before data acquisition to suppress the broad signals derived from protein. The protein buffer used in the experiments contains 10 mM Tris-d11, 75 mM KCl, 0.25 mM EDTA, pH 7.5, and 10% D20. All NMR data were acquired on a Bruker Avance II 800 MHz NMR spectrometer equipped with a sensitive cryoprobe and recorded at 25° C. The ^1H chemical shifts were referenced to 2,2-dimethyl-2-silapentane-5-sulfonate (DSS). NMR spectra were processed using NMR Pipe (Delaglio et al., 1995) and analysed using NMR View (Johnson and Blevins, 1994).

[3] = molecular target: T3, interaction between RAD52 and RPA proteins (Homo sapiens, UniProt P43351); assay: Ni-NTA pull-down of RAD52 and RPA; assay type: binding; details: 3 μM RAD52, 3 μM RPA, 3 μM compound
T3 construct: made in house
T3 sequence (P27694 whole entry partner, one chain of several): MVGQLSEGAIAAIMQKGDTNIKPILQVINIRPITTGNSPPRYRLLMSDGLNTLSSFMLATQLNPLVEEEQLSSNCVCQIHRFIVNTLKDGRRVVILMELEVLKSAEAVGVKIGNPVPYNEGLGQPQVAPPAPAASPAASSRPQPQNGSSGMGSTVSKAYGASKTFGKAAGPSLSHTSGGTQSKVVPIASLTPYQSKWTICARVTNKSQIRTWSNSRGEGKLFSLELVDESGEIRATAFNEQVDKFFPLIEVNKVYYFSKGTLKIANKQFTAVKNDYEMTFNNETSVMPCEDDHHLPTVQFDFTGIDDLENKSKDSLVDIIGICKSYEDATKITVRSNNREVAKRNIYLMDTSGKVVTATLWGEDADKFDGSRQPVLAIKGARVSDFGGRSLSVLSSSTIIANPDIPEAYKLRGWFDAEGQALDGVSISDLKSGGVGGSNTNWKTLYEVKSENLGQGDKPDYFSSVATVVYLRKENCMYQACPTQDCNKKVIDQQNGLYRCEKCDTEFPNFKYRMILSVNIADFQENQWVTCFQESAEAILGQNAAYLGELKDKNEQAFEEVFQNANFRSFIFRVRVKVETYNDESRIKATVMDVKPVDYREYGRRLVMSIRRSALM
T3 sequence (P15927 whole entry partner, one chain of several): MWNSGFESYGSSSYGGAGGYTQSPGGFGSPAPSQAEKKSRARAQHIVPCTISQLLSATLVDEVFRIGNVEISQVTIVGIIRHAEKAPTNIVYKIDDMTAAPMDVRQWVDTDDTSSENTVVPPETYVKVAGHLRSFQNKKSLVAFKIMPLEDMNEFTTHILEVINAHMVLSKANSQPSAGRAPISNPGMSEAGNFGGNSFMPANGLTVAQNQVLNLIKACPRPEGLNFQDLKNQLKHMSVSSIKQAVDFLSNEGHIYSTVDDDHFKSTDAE
T3 sequence (P35244 whole entry partner, one chain of several): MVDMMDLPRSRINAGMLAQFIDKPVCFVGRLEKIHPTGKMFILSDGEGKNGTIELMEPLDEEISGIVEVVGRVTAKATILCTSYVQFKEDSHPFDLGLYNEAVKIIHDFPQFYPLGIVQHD

[4] = test system: GM01604 cells; assay: Anaphase bridges after aphidicolin (MUS81 activity); assay type: cell-based, human; details: aphidicolin 24 h, increasing concentration of compound
Experimental: Forty eight hours after transfection the fibroblasts were lysed and analysed by WB with the indicated antibodies. b) Forty eight hours after transfection, GM01604 cells were exposed to […] aphidicolin (APH) for 24 h in the presence (grey bars) or absence (white bars) of increasing concentration of ‘1’ added in the last 3 h before aphidicolin treatment. Results are presented as mean±SEM from two independent replicates. c) The presence of anaphase bridges, as shown in the representative images, was scored in DAPI-stained cells. The white bars indicate 10 μm.

[5] = test system: GM01604 cells; assay: LIVE/DEAD cell viability assay; assay type: cell-based, human; details: for Dead cells: MUS81-depleted cells
Experimental: Cell Viability Live/Dead Assays: GM01604 cells were transfected with siRNAs directed against GFP (Ctrl), or against MUS81 (Qiagen), BRCA2 (Sigma-Aldrich), and RAD52 (Qiagen) 48 hours prior to addition of 1 μM ‘1’. Where indicated, the conditions of pathological replication were induced by treating cells with 2 mM HU and 300 nM UCN01 for 6 h or by a 18 hours treatment with 2 mM HU, in the presence or absence of ‘1’. Viability was evaluated by the LIVE/DEAD assay (Sigma-Aldrich) according to the manufacturer's instructions. Cell number was counted in randomly chosen fields and expressed as percent of dead cells (number of red nuclear stained cells divided by the total cell number) corrected for the cell loss observed in the population. For each time point, at least 200 cells were counted.

Effect on the RAD52-dsDNA interaction [1] | Binding to RAD52 by WaterLOGSY [2] | Effect on the interaction between RAD52 and RPA proteins [3] | Structure (SMILES) | Effect on MUS81 activity (anaphase bridges) [4] | Cell death after prolonged replication arrest ([5]; BRCA2-depleted cells, HU 18 h) | Cell death ([5]; BRCA2-depleted cells, after replication stress, 1 μM compound) | Cell death after HU+UCN01 ([5]; Ctrl siRNA cells, 1 μM compound) | Dead cells ([5]; checkpoint-deficient, HU treated, 1 μM compound) | Dead cells ([5]; untreated, 1 μM compound)
able to displace dsDNA | positive WaterLOGSY peaks | no effect | O=C(O[C@@H]1Cc2c(O)cc(O)cc2O[C@@H]1c1cc(O)c(O)c(O)c1)c1cc(O)c(O)c(O)c1 [Compound 6, Epigallocatechin-3-monogallate] |  |  |  |  |  | 
 |  |  | Oc1cc(O)c2c(c1)O[C@H](c1cc(O)c(O)c(O)c1)[C@H](O)C2 [Compound ‘1’, (−)-Epigallocatechin] | does not affect MUS81 activity | substantial increase in cell death | ~80% | potentiated the effect of the combined HU+UCN01 treatment | ~60% | approximately 40%
